Consider three compounds from patent US11939617B2, “Functionally modified polypeptides and radiobiosynthesis” (Ikaria Inc., priority 2016, dated 2024).

For data set [1], the system named is amber nonsense codon in GFPUV-149UAG, PylRS mutant/tRNACUA^Pyl. The data set is described as follows: amber suppression in GFP by PylRS mutant in E. coli, fluorescence plate reader. The data set is classed as cell-based. The note with it: medium with 1 mM nnAA versus control LB medium, best hit from the library. From the text: Since many PylRS mutants have broad substrate specificity, we first screened only a small library of 22 previously evolved PylRS mutants for their ability to incorporate 1 and 2 into green fluorescence protein (GFP) in E coli. The screening was based on the suppression of an amber nonsense codon at a permissive site in a GFP-encoding gene. Briefly, a plasmid, pLei-GFPUV-N149UAG, which contains GFPUV-149UAG and a copy of a tRNACUA^Pyl, was co-transformed into E. coli GeneHogs strain with a plasmid containing a variant of PylRS mutant. Protein expression was carried out in control LB medium and in medium supplemented with 1 mM 1 or 2. After induction of GFP expression and cultivation (12 h), cells were collected, washed, and analyzed using a fluorescence plate reader.

A further data set has as its target HSA (Homo sapiens, UniProt P02768). The experiment in a line: chromatographic assay of HSA binding. The note with it: for Kd: chromatographic HSA binding assay (Hage). The text has this: To assess albumin binding, any assay designed to measure albumin binding can be used. Chromatographic binding assays are especially useful, such as that described by Hage, D S, et al. J (Chromatogr B Biomed Sci Appl. 2000, 739:39-54). Alternatively or in conjunction, binding affinity to albumin can be determined by using surface plasmon resonance. In one method, a BIAcore 200 device (BIAcore Inc.; Piscataway, NJ) is used in combination with a procedure by Lacy, S E, et al. (MAbs, 2015. 7:605-19) as modified herein. Briefly, human and mouse albumin are captured on a CM5 chip using amine coupling at 5000 resonance units. The candidate polypeptides are injected at various concentrations (e.g., 0, 0.625, 1.25, 5, and 10 μM) at a controlled flow rate (e.g., 20 μl/min). The bound peptides are allowed to dissociate for a period of time (e.g., 5 min) before matrix regeneration using 10 mM glycine, pH 3. The signal from an injection passing over an uncoupled cell is subtracted from that of an immobilized cell to generate sensorgrams of the amount of polypeptide bound as a function of time. BIAcore kinetic evaluation software (version 3.1) can be used to determine KD from the association and dissociation rates using a one-to-one binding model. Alternatively or in conjunction, affinity to albumin can be determined using a direct assay, such as described by Nguyen, A, et al. (Protein Eng Des Sel. 2006, 19:291-7). In this method, albumin is immobilized onto high protein-binding capacity polystyrene 96 well plates at a predetermined concentration, such as 2 mg/ml, for a period of time (e.g., overnight) at 4° C. Non-specific binding sites are blocked with binding buffer, and radio-labelled candidate polypeptides are applied to the plates for a period of time, such as 30 minutes, at 25° C. Unbound candidate polypeptides are washed away, and bound candidate polypeptides detected using a radioactivity plate reader.
The two non-natural amino acids (nnAAs 1 and 2; FIG. 1) were synthesized from the corresponding NHS-esters by standard conjugation chemistry (FIG. 1). […]

The conditions of data set [2]: daily subcutaneous injection, 70-100 mg, 1-2 mg/kg; cited from earlier work.

Chain of HSA (P02768 25-609): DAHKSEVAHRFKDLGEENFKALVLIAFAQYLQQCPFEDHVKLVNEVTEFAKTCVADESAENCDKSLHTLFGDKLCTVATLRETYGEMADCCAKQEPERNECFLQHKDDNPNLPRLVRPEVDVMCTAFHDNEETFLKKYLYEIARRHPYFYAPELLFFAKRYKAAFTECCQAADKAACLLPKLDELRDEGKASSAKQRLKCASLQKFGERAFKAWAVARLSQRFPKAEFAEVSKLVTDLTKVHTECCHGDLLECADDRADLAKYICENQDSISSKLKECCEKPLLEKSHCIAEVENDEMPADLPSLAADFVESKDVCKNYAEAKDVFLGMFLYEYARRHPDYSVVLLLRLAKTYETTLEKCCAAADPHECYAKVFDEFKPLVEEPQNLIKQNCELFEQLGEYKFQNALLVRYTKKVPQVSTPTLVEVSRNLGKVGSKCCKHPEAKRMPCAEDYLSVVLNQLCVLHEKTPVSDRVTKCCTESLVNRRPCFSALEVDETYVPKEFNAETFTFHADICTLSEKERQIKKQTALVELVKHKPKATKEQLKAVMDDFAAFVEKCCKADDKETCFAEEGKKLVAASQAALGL

Consider `N[C@@H](CCCCNC(=O)CCc1ccc(I)cc1)C(=O)O` [nnAA 2, Nε-(3-(4-iodophenyl)propanoyl)lysine], for which the “full-length GFPUV production (fluorescence)” value in data set [1] was “significantly more full-length GFPUV proteins were produced”. Besides, the dissociation constant Kd on HSA came to 204 µM. Also, on HSA (statement in words), the albumin binding entry is reported as “binds albumin poorly”.

“anakinra: 17 kD therapeutic protein currently prescribed for the treatment of rheumatoid arthritis”: the “time of peak serum concentration after injection” value in data set [2] is listed as roughly 6 h.

For the compound `N[C@@H](CCCCNC(=O)CCCc1ccc(I)cc1)C(=O)O` [compound 1], the Kd on HSA came out at 7 µM.

By Kd is commonly meant the free concentration of one partner at which half of the binding sites on the other are occupied at equilibrium, for simple one-to-one binding.
